This is an account of results in US12364668B2, “Treatment of opioid use disorder, opioid withdrawal symptoms, and chronic pain” (THE REGENTS OF THE UNIVERSITY OF CALIFORNIA, priority 2017, dated 2025).

The test system of series [1] is Chronic Constriction Injury model of chronic neuropathic pain. Description: Von Frey pain threshold in the Chronic Constriction Injury (sciatic nerve ligation) model. To be noted: CCI rats.
Text: Male Sprague Dawley rats underwent baseline measurement of pain threshold via Von Frey testing according to the study schema in FIG. 4. The following day, rats underwent surgical ligation of the sciatic nerve using the Chronic Constriction Injury model of chronic neuropathic pain. After 7 days to allow the development of chronic neuropathic pain, rats underwent repeat Von Frey testing to determine pain threshold and started oral treatment with CBD or saline (Table 2). After 7 days of CBD or saline, rats underwent pre-dosing pain threshold determination via Von Frey testing and then received either standard dose BUP, low dose BUP, CBD alone or low dose BUP plus CBD followed by repeat post-dose pain threshold determination via Von Frey testing (Table 3).
Series [2] deals with Cytochrome P450 3A4 (CYP 3A4) (Homo sapiens, UniProt P08684). To be noted: in vitro study (Stout and Cimino 2014); cited from earlier work.
Sequence of Cytochrome P450 3A4 (CYP 3A4) (P08684 whole entry, species assumed): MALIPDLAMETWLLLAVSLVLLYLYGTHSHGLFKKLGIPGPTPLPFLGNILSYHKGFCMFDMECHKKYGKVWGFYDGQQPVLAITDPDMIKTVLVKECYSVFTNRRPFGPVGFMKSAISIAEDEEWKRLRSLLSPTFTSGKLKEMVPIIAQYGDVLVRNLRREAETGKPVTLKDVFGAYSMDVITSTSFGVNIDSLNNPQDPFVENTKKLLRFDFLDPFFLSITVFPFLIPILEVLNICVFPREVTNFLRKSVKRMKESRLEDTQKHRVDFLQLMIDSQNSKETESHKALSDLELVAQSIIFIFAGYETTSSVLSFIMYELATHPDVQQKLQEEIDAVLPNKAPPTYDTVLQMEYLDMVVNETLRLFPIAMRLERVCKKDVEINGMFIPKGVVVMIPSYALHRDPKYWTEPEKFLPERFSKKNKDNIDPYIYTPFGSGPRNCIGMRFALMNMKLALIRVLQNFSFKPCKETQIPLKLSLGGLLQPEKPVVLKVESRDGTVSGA
For series [3] the following is noted: rats (Graham and Li, 1973); cited from earlier work.

Turning to `C=C(C)[C@@H]1CCC(C)=C[C@H]1c1c(O)cc(CCCCC)cc1O` [CBD, cannabidiol], in series [1] (CBD alone 7 mg/kg PO days 7-14, saline IV on day 14), the “Mean pain threshold (g in Von Frey Testing), Day 14-1 hour Post Dose” value amounted to 5.25 g. Also, in series [1] (CBD alone 7 mg/kg PO days 7-14), the “Pain threshold on day 14 compared to no BUP (Group 1)” value is “did not significantly increase”. Moreover, the “Mean pain threshold (g in Von Frey Testing), Day 14 Pre-Dose” value in series [1] (CBD alone group, after 7 days of CBD 7 mg/kg PO, before day 14 dosing) is recorded as 5.50 g. Further, the “Inhibition of CYP 3A4” value in series [2] is given as “inhibits”. Moreover, the “Effect on respiratory rate” value in series [3] is on record as “did not reduce”.
